From paper PMC12153776, “Synthesis and Preliminary Cytotoxicity Evaluation of 3-Lup-20(29)-Ene-3β,28-Diol Glycoconjugates Containing a Succinic Linker and a 1,2,3-Triazole Ring” (Cancers, 2025)

Legend:
MCF-7 cell line = tested on: MCF-7 cell line; set-up: method as in PMID 33353244; details: previous study; cited from earlier work
healthy cells = tested on: healthy cells; set-up: method as in PMID 33353244; details: previous study; cited from earlier work
[1] = tested on: HCT 116 (colorectal carcinoma cell line); assay: cells; format: cell-based, human; details: for IC50: Homo sapiens, MTT
Experimental: (§1) For biological studies three different cell lines were used: the NHDF-Neo cell line (Lonza, Poland), the HCT-116 cell line (American Type Culture Collection, ATCC, Manassas, VA, USA), and the MCF-7 cell line (purchased by the Maria Sklodowska-Curie Memorial Cancer Center and Institute of Oncology, Gliwice, Poland and gifted for our research). Cells were cultured in 96-well plates (Sarstedt, Nümbrecht, Germany) using RPMI 1640 or DMEM/F12 media (100 µL per well) supplemented with fetal bovine serum (FBS, EURx, Gdańsk, Poland), and with Antibiotic–Antimycotic Solution (Avantor, Gliwice, Poland). […] Stock solutions of the tested compounds were prepared in DMSO and stored under appropriate conditions. Immediately prior to the experiment, these solutions were diluted to the desired concentrations using a growth medium. In no dilution was the DMSO content higher than 1% v/v. The resulting solutions were then used to treat cells (100 µL per well). […] In parallel, the influence of copper ions on cellular proliferation was investigated. In this case, the procedure was analogous to the previously described one, with the difference that glycoconjugates were added in the culture medium with the addition of CuCl2. […] ACROS Organics) was applied following the manufacturer’s protocol. Absorbance of the formazan, formed during the test and dissolved in 100 µL of DMSO, was measured spectrophotometrically at 570 nm using a plate reader (Epoch, Bio-Tek, Winooski, VT, USA). The measured absorbance was analyzed to assess proliferation, where tested samples were compared with the untreated controls (100%). The results from MTT were presented as the mean of three experiments (biological replicates). For each experimental condition within a replicate, four technical repetitions were performed. Technical repetitions were averaged to obtain a single value per replicate. Statistical analyses were conducted using means of the biological replicates. The percentage of viable cells and the standard deviation (SD) were calculated in Excel (Microsoft Office 365, A3 for faculty), using the STDEV.S formula, which determines the standard deviation for a sample set. […] The results are expressed as the average value ± standard deviation (SD). To evaluate statistical significance, two-way analysis of variance (ANOVA) with replication was performed to assess the effects of compound type and concentration on cell proliferation. […] All statistical tests were performed in Excel. […] Two cancer cell lines were chosen for the study: HCT 116 (colorectal carcinoma cell line) and MCF-7 (human breast adenocarcinoma cell line). This selection was not random, as in both types of cancer cell lines overexpression of glucose and galactose transporters is observed. To determine if glycoconjugation enhanced the selectivity of the betulin derivatives, cytotoxicity tests on Normal Human Dermal Fibroblast-Neonatal cells (NHDF-Neo) were also conducted. […] The incubation time for individual cell lines varied from 24 to 72 h, due to differences in the doubling time of these cell lines.

[2] = tested on: MCF-7 (human breast adenocarcinoma cell line); assay: MTT cytotoxicity assay, MCF-7 cells; format: cell-based; details: for IC50: Homo sapiens, MCF7, 72 h, MTT, incubation 72 h
Experimental: as §1, with “Poland). Cells were seeded and incubated for 24 h prior to treatment:” for “Poland).”, “proliferation. When significant main effects were observed (p < 0.05), pairwise comparisons between betulin (BN) and each analogue at corresponding concentrations were conducted using two-tailed unpaired t-tests.” for “proliferation.”, “conducted. The selection of this healthy cell line, so atypical in relation to the cancer cells tested, was based on the desire to compare the selectivity index determined for the currently obtained glycoconjugates with the results obtained for the betulin derivatives we described earlier and draw preliminary conclusions on structure-selectivity relationships.” for “conducted.”

[3] = tested on: Normal Human Dermal Fibroblast-Neonatal cells (NHDF-Neo); assay: MTT cytotoxicity assay, healthy NHDF-Neo cells; format: cell-based; details: 24 h, incubation 24 h
Experimental: as §1

[4] = HCT-116, 24 h, incubation 24 h, no copper added
[5] = HCT-116, 48 h, incubation 48 h, addition of CuCl2 at 20 µM
[6] = HCT-116, 48 h, incubation 48 h, no copper added

Row | SMILES | in vitro activity against the MCF-7 cell line (MCF-7 cell line) | toxicity against healthy cells (healthy cells) | IC50 ([1]; HCT-116, 24 h, incubation 24 h, addition of CuCl2 at 20 µM) [µM] | IC50 [1, 4] [µM] | IC50 [1, 5] [µM] | IC50 [1, 6] [µM] | IC50 ([2]; addition of CuCl2 at 20 µM) [µM] | IC50 ([2]; no copper added) [µM] | SI MCF-7 (ratio of IC50 of NHDF-Neo to IC50 of cancer cells) ([2]; no copper added) | IC50 ([3]; addition of CuCl2 at 20 µM) [µM] | IC50 ([3]; no copper added) [µM] | SI HCT 116 (ratio of IC50 of NHDF-Neo to IC50 of cancer cells) ([1]; addition of CuCl2 at 20 µM) | SI HCT 116 (ratio of IC50 of NHDF-Neo to IC50 of cancer cells) ([1]; no copper added) | SI MCF-7 (ratio of IC50 of NHDF-Neo to IC50 of cancer cells) ([2]; addition of CuCl2 at 20 µM)
1 | C=C(C)C1CCC2(COC(=O)Cn3cc(CO)nn3)CCC3(C)C(CCC4C5(C)CCC(OC(=O)Cn6cc(CO)nn6)C(C)(C)C5CCC43C)C12 (stereo not shown) [3,28-O,O’-bis(2-(4-(hydroxymethyl-1H-1,2,3-triazol-1-yl)acetyl)betulin] | unexpectedly high in vitro activity | showed toxicity against healthy cells | – | – | – | – | – | – | – | – | – | – | – | –
2 | C=C(C)[C@@H]1CC[C@]2(COC(=O)CCC(=O)OCc3cn(CCO)nn3)CC[C@]3(C)C(CCC4[C@@]5(C)CC[C@H](OC(C)=O)C(C)(C)C5CC[C@]43C)C12 (stereo partly shown) [9a] | – | – | > 200 | > 200 | > 200 | > 200 | 139 ± 6.21 | 148 ± 8.71 | >1.4 | > 200 | > 200 | – | – | –
3 | C=C(C)[C@@H]1CC[C@]2(CO)CC[C@]3(C)[C@H](CC[C@@H]4[C@@]5(C)CC[C@H](O)C(C)(C)[C@@H]5CC[C@]43C)[C@@H]12 [BN, 3-Lup-20(29)-ene-3β,28-diol] | – | – | – | 34.9 ± 4.26 | 20.8 ± 2.71 | 26 ± 5.4 | 13.9 ± 2.35 | 17.9 ± 1.06 | 1.9 | 33.3 ± 5.97 | 34.9 ± 8.36 | 1.6 | 1.3 | 2.4
